Experimental data reported in patent US8802866B2, “Pyridinylimidazolone derivatives for the inhibition of PI3 kinases” (Merck Patent GmbH, priority 2009, dated 2014).

Key:
PI3Kalpha = PI3Kalpha (Homo sapiens, UniProt P42336); test: Biochemical PI3Kalpha assay (neomycin SPA, lipid phosphorylation); conditions: human recombinant GST-PI3K
Summary of the method: (§1)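 Recombinant PI3K incubated with lipid substrate and radioactive ATP for 120 min at room temperature with gentle stirring, then stopped with neomycin-coated PVT-SPA beads, ATP 60 mM and EDTA 6.2 mM in PBS. After 60 min bead binding and centrifugation, radioactive Ptdlns(3)P counted by scintillation.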

PI3Kbeta = PI3Kbeta (Homo sapiens, UniProt P42338); test: Biochemical PI3Kbeta assay (neomycin SPA, lipid phosphorylation); conditions: human recombinant GST-PI3K
Summary of the method: as §1

[1] = molecular target: recombinant PI3Kalpha (shortened form of the catalytic subunit) (Homo sapiens, UniProt P42336); test: BIACORE PI3K binding assay (SPR); conditions: 25° C.
Summary of the method: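 Contact time was 180 s and dissociation 240 s, in HEPES pH 7.40 buffer with 2% DMSO. Solvent-corrected, double-referenced data were fitted to a 1:1 model with mass transport.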

[2] = test system: PI3K-dependent phosphorylation of PKB at Serin 473 in PC3 cells; test: Cellular PI3K assay (P-S473-PKB Luminex assay in PC3 cells); type: cell-based; conditions: Homo sapiens, PC-3, 0.5 h; PC3 cells, 30 min, serum-free, P-S473-PKB; read-out: IC50 (cell)
Summary of the method: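 PC3 cells were exposed for 30 min under serum-free conditions to 7 concentrations of compound, then lysed. Lysates were captured overnight at 4°C on anti-total-PKB Luminex beads and detected with P-S473-PKB antibody plus PE-labelled secondary.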

DNA-PK protein complex = DNA-PK protein complex (Homo sapiens, UniProt P78527); test: Biochemical DNA-PK assay (FlashPlate)
Summary of the method: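 Streptavidin-coated FlashPlate radiometric kinase assay, stopped with 200 mM EDTA, then wells washed with 0.9% NaCl and bound radioactivity counted. Blank (non-specific reaction) defined with a proprietary kinase inhibitor at 10 μM.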

mTOR = molecular target: T1, mTOR (Homo sapiens, UniProt P42345); test: Biochemical mTOR assay (Millipore mTOR assay kit)
T1 construct: purchased Millipore 14-770
Experimental: The biochemical mTOR assay was carried out by the method described in the Millipore mTOR assay kit (catalogue number 14-770).

T1 sequence (P42345 1362-2549 limits assumed): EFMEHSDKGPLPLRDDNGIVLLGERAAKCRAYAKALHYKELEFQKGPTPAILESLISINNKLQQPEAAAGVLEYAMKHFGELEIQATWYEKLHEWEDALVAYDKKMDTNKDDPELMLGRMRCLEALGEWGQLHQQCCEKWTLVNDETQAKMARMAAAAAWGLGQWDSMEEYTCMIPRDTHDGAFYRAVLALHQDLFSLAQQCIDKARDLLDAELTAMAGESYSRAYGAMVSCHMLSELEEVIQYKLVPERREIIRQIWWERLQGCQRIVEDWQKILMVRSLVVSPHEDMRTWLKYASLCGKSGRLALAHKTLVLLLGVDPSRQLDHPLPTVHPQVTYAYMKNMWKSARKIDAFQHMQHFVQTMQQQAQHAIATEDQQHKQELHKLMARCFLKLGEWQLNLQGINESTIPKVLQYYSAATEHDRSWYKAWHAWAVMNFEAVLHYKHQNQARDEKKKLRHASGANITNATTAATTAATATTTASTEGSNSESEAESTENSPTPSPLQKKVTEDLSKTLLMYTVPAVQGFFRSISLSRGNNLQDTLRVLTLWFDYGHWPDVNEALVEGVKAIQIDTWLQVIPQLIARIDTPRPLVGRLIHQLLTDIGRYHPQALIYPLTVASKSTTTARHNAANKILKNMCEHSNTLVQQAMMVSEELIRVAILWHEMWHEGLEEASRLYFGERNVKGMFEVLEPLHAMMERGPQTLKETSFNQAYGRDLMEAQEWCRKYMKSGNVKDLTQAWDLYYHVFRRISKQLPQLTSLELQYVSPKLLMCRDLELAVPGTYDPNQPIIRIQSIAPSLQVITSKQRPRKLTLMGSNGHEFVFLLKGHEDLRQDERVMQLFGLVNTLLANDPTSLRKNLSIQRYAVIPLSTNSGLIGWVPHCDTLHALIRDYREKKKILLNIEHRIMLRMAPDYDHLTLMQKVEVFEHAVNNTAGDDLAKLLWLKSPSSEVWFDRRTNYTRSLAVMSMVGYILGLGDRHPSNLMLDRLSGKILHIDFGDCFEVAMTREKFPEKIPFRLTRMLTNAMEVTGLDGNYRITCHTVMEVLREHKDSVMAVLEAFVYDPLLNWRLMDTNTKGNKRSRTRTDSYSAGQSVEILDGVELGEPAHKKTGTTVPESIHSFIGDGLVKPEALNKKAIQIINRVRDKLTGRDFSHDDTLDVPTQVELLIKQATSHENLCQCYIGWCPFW
Sequence of PI3Kalpha (P42336 whole entry): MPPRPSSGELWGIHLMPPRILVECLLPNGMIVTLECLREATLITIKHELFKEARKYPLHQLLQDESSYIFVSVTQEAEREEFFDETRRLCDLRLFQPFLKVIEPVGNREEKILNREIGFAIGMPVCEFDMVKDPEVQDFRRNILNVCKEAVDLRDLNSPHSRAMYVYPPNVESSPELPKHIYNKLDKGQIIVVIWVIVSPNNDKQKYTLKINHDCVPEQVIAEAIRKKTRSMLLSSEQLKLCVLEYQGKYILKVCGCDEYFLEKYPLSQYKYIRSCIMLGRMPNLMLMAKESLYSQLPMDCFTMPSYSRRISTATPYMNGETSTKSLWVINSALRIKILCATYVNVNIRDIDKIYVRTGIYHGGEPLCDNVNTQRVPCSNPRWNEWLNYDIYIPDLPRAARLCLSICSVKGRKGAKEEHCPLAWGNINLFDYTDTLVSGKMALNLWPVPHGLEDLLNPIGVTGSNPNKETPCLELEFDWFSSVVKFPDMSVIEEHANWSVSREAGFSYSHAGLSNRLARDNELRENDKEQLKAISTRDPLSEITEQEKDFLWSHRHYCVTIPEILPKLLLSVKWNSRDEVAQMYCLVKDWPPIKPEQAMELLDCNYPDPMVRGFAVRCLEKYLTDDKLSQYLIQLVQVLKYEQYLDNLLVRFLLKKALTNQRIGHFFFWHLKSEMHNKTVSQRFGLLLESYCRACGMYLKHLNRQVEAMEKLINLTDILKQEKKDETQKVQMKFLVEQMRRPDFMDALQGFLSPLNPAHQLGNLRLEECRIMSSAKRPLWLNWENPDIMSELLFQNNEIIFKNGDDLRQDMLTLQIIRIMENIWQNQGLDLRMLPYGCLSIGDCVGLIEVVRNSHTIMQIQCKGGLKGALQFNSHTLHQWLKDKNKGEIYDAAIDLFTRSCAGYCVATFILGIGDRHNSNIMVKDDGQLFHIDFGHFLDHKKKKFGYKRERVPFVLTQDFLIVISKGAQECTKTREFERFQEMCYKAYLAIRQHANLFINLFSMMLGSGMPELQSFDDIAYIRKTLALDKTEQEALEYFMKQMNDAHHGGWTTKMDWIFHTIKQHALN
Sequence of PI3Kalpha (P27986 whole entry partner): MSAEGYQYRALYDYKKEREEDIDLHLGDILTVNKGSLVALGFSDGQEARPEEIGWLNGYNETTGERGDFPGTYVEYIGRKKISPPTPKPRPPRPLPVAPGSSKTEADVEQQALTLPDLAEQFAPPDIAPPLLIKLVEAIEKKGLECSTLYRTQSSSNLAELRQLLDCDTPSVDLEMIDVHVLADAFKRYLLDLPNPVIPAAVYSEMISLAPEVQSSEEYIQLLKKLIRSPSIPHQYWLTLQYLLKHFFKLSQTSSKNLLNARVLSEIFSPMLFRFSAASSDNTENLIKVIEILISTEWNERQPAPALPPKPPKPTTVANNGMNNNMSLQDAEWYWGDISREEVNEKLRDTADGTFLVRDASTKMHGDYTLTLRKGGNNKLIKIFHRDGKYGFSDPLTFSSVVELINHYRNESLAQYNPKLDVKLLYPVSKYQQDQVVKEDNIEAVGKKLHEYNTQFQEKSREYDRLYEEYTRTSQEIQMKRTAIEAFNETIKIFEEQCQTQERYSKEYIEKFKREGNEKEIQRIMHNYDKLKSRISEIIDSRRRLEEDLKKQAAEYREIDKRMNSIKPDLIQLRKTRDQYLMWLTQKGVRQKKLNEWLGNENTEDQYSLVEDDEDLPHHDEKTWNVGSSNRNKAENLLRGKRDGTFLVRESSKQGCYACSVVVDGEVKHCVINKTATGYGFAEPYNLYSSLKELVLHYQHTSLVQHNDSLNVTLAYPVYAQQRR
Sequence of PI3Kbeta (P42338 whole entry): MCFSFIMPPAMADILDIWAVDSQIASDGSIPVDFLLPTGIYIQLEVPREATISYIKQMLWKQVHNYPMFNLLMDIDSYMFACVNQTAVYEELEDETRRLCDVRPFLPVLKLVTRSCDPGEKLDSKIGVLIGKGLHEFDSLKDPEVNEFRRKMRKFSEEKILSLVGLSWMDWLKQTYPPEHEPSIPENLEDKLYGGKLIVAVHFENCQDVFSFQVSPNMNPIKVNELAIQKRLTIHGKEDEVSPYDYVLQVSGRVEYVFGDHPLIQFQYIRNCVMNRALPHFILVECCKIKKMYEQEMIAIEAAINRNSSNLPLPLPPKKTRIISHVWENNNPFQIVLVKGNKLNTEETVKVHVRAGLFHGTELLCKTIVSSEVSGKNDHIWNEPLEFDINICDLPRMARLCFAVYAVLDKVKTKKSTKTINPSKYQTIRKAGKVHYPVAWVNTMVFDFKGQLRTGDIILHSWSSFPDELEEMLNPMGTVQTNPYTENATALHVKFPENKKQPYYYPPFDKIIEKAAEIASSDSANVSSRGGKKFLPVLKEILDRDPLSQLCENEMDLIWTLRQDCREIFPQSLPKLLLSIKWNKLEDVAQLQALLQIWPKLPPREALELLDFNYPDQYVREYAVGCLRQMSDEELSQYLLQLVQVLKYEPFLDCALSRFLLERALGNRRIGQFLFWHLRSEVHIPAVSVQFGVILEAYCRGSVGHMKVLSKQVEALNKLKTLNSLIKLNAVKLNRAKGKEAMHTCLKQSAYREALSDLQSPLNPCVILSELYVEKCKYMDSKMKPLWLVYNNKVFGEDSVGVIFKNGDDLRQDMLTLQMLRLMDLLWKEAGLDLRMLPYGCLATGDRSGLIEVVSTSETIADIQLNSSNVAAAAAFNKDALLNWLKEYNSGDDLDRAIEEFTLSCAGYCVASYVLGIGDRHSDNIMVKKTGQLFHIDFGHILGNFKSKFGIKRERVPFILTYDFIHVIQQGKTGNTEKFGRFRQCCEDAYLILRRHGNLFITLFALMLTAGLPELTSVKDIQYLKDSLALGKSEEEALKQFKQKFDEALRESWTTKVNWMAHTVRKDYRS
Sequence of PI3Kbeta (P27986 whole entry partner): as the sequence (P27986 whole entry partner) above
Sequence of recombinant PI3Kalpha (shortened form of the catalytic subunit) (P42336 151-1068 limits assumed): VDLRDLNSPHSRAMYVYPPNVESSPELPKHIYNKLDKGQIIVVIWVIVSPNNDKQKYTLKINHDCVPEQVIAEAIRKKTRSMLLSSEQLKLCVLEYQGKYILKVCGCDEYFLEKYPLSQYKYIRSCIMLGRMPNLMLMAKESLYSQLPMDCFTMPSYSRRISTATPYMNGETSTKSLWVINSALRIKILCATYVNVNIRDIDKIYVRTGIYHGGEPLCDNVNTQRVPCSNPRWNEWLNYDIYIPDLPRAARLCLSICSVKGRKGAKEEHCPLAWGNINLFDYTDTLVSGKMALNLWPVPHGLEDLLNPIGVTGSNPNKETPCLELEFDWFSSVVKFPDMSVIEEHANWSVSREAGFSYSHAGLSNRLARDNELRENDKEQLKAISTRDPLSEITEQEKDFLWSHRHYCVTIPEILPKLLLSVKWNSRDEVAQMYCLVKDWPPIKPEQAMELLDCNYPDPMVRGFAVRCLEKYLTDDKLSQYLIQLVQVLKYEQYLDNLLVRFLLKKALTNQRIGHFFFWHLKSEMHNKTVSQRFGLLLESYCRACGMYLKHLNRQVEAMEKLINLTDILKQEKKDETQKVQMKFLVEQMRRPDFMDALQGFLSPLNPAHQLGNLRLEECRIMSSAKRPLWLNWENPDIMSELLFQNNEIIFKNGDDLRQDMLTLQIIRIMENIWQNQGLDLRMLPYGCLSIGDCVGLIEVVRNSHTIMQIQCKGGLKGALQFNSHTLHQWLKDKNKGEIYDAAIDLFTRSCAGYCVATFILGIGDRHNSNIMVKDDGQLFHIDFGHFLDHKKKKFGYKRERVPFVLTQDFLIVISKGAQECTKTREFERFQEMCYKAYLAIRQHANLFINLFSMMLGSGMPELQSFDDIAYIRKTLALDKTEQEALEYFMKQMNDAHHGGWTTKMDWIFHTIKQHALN

Cn1cc(-c2cc(-c3cnc4ccccc4c3)ccn2)n(-c2ccc(C(C)(C)C#N)cc2)c1=O [Example A1, 2-Methyl-2-{4-[3-methyl-2-oxo-5-(4-quinolin-3-ylpyridin-2-yl)-2,3-dihydroimidazol-1-yl]phenyl}propionitrile]
IC50 (PI3Kalpha): 100 to 10000 nM
IC50 (PI3Kbeta): 0.1 to 10 µM
Kd [1]: 100 to 10000 nM
IC50 [2]: 100 to 10000 nM
IC50 (DNA-PK protein complex): 0.1 to 100 nM
IC50 (mTOR): 0.1 to 100 nM
melting point: 228 °C

COc1ccc(-c2ccnc(-c3cn(C)c(=O)n3-c3ccc(C(C)(C)C#N)cc3)c2)cn1 [Example A9, 2-{4-[5-(6-Methoxy-[3,4′]bipyridinyl-2′-yl)-3-methyl-2-oxo-2,3-dihydroimidazol-1-yl]phenyl}-2-methylpropionitrile]
IC50 (PI3Kalpha): 100 to 10000 nM
IC50 (PI3Kbeta): 0.1 to 10 µM
Kd [1]: 100 to 10000 nM
IC50 [2]: 100 to 10000 nM
IC50 (DNA-PK protein complex): 0.1 to 100 nM
IC50 (mTOR): 100 to 10000 nM
melting point: 187 °C

Cn1cc(-c2cc(-c3cnc4[nH]ccc4c3)ccn2)n(-c2ccc(C(C)(C)C#N)cc2)c1=O [Example A12, 2-Methyl-2-(4-{3-methyl-2-oxo-5-[4-(1H-pyrrolo[2,3-b]pyridin-5-yl)pyridin-2-yl]-2,3-dihydroimidazol-1-yl}phenyl)propionitrile]
IC50 (PI3Kalpha): 0.1 to 100 nM
IC50 (PI3Kbeta): 0.1 to 10 µM
Kd [1]: 0.1 to 100 nM
IC50 [2]: 0.1 to 100 nM
IC50 (DNA-PK protein complex): 0.1 to 100 nM
IC50 (mTOR): 100 to 10000 nM
melting point: 248 °C

COc1ccc(-c2ccnc(-c3cn(C)c(=O)n3-c3ccc(C(C)(C)C#N)cc3)c2)cc1 [Example A13, 2-(4-{5-[4-(4-Methoxyphenyl)pyridin-2-yl]-3-methyl-2-oxo-2,3-dihydroimidazol-1-yl}phenyl)-2-methylpropionitrile]
IC50 (PI3Kalpha): > 10000 nM
IC50 (PI3Kbeta): > 10 µM
Kd [1]: 100 to 10000 nM
IC50 [2]: > 10000 nM
IC50 (DNA-PK protein complex): 0.1 to 100 nM
IC50 (mTOR): 100 to 10000 nM
melting point: 219 °C

Cn1cc(-c2cc(-c3cnc4[nH]cc(C(F)(F)F)c4c3)ccn2)n(-c2ccc(C(C)(C)C#N)cc2)c1=O [Example A18, 2-Methyl-2-(4-{3-methyl-2-oxo-5-[4-(3-trifluoromethyl-1H-pyrrolo[2,3-b]pyridin-5-yl)pyridin-2-yl]-2,3-dihydroimidazol-1-yl}phenyl)propionitrile]
IC50 (PI3Kalpha): 100 to 10000 nM
IC50 (PI3Kbeta): 0.1 to 10 µM
Kd [1]: 0.1 to 100 nM
IC50 [2]: 0.1 to 100 nM
IC50 (DNA-PK protein complex): 100 to 10000 nM
melting point: 159 °C

Cn1cc(-c2cc(-c3cnc4ccccc4c3)ccn2)n(-c2ccc(C(C)(C)C(N)=O)cc2)c1=O [Example A21, 2-{-4-[3-Methyl-2-oxo-5-(4-quinolin-3-ylpyridin-2-yl)-2,3-dihydroimidazol-1-yl]-phenyl}isobutyramide]
IC50 (PI3Kalpha): 100 to 10000 nM
IC50 (PI3Kbeta): 0.1 to 10 µM
Kd [1]: 0.1 to 100 nM
IC50 [2]: > 10000 nM
IC50 (DNA-PK protein complex): 0.1 to 100 nM
IC50 (mTOR): 100 to 10000 nM
melting point: 259 °C

Cn1cc(-c2cc(-c3cnc4[nH]ccc4c3)ccn2)n(-c2ccc(N3CCNCC3)c(C(F)(F)F)c2)c1=O [Example A25, 1-Methyl-3-(4-piperazin-1-yl-3-trifluoromethylphenyl)-4-[4-(1H-pyrrolo[2,3-b]-pyridin-5-yl)pyridin-2-yl]-1,3-dihydroimidazol-2-one]
IC50 (PI3Kalpha): 100 to 10000 nM
IC50 (PI3Kbeta): 0.0001 to 0.1 µM
Kd [1]: 0.1 to 100 nM
IC50 [2]: 100 to 10000 nM
IC50 (DNA-PK protein complex): 100 to 10000 nM
melting point: 163 °C

Cn1cc(-c2cc(-c3ccsc3)ccn2)n(-c2ccc(C(C)(C)C#N)cc2)c1=O [Example A26, 2-Methyl-2-{4-[3-methyl-2-oxo-5-(4-thiophen-3-ylpyridin-2-yl)-2,3-dihydro-imidazol-1-yl]phenyl}propionitrile]
IC50 (PI3Kalpha): 100 to 10000 nM
IC50 (PI3Kbeta): > 10 µM
Kd [1]: 100 to 10000 nM
IC50 [2]: > 10000 nM
IC50 (DNA-PK protein complex): 0.1 to 100 nM
IC50 (mTOR): 100 to 10000 nM
melting point: 209 °C

N#CCc1ccc(-n2c(-c3cc(-c4cnc5[nH]ccc5c4)ccn3)c[nH]c2=O)cc1 [Example A31, (4-{2-oxo-5-[4-(1H-pyrrolo[2,3-b]pyridin-5-yl)pyridin-2-yl]-2,3-dihydroimidazol-1-yl}phenyl)acetonitrile]
IC50 (PI3Kalpha): 100 to 10000 nM
IC50 (PI3Kbeta): 0.1 to 10 µM
Kd [1]: 0.1 to 100 nM
IC50 [2]: 100 to 10000 nM
IC50 (DNA-PK protein complex): 0.1 to 100 nM
IC50 (mTOR): 100 to 10000 nM
melting point: > 410 °C (dec.)

Cn1cc(-c2cc(-c3cnc4[nH]ccc4c3)ccn2)n(-c2ccc(CC#N)cc2)c1=O [Example A32, (4-{3-Methyl-2-oxo-5-[4-(1H-pyrrolo[2,3-b]pyridin-5-yl)pyridin-2-yl]-2,3-dihydroimidazol-1-yl}phenyl)acetonitrile]
IC50 (PI3Kalpha): 0.1 to 100 nM
IC50 (PI3Kbeta): 0.1 to 10 µM
Kd [1]: 0.1 to 100 nM
IC50 [2]: 100 to 10000 nM
IC50 (DNA-PK protein complex): 0.1 to 100 nM
IC50 (mTOR): 0.1 to 100 nM
melting point: 252 °C

Cn1cc(-c2cc(-c3cnc4[nH]ccc4c3)ccn2)n(-c2ccc(C(C)(C)C(N)=O)cc2)c1=O [Example A34, 2-(4-{3-Methyl-2-oxo-5-[4-(1H-pyrrolo[2,3-b]pyridin-5-yl)pyridin-2-yl]-2,3-dihydroimidazol-1-yl}phenyl)isobutyramide]
IC50 (PI3Kalpha): 0.1 to 100 nM
IC50 (PI3Kbeta): 0.1 to 10 µM
IC50 [2]: 100 to 10000 nM
IC50 (DNA-PK protein complex): 0.1 to 100 nM
IC50 (mTOR): 100 to 10000 nM
melting point: 299 °C

Cn1cc(-c2cc(-c3cnc4[nH]ccc4c3)ccn2)n(-c2ccc(C(C)(C)CN)cc2)c1=O [Example A35, 3-[4-(2-Amino-1,1-dimethylethyl)phenyl]-1-methyl-4-[4-(1H-pyrrolo[2,3-b]-pyridin-5-yl)pyridin-2-yl]-1,3-dihydroimidazol-2-one]
IC50 (PI3Kalpha): 100 to 10000 nM
IC50 (PI3Kbeta): 0.1 to 10 µM
IC50 [2]: 100 to 10000 nM
IC50 (DNA-PK protein complex): 0.1 to 100 nM
IC50 (mTOR): 100 to 10000 nM
melting point: 91 °C

CCOC(=O)C(C)(C)c1ccc(-n2c(-c3cc(-c4cnc5ccccc5c4)ccn3)cn(C)c2=O)cc1 [Example A36, Ethyl 2-methyl-2-{4-[3-methyl-2-oxo-5-(4-quinolin-3-ylpyridin-2-yl)-2,3-dihydro-imidazol-1-yl]phenyl}propionate]
IC50 (PI3Kalpha): 100 to 10000 nM
IC50 (PI3Kbeta): > 10 µM
Kd [1]: 100 to 10000 nM
IC50 [2]: > 10000 nM
IC50 (DNA-PK protein complex): 0.1 to 100 nM
IC50 (mTOR): 100 to 10000 nM
melting point: 158 °C

Cn1cc(-c2cc(-c3cnc(N)c(C(F)(F)F)c3)ccn2)n(-c2ccc(C(C)(C)C#N)cc2)c1=O [Example A40, 2-{4-[5-(6-Amino-5-trifluoromethyl-[3,4′]bipyridinyl-2′-yl)-3-methyl-2-oxo-2,3-dihydroimidazol-1-yl]phenyl}-2-methylpropionitrile]
IC50 (PI3Kalpha): 0.1 to 100 nM
IC50 (PI3Kbeta): 0.0001 to 0.1 µM
Kd [1]: 0.1 to 100 nM
IC50 [2]: 0.1 to 100 nM
IC50 (DNA-PK protein complex): 0.1 to 100 nM
melting point: 195 °C

Cn1cc(-c2cc(-c3cnc4[nH]ncc4c3)ccn2)n(-c2ccc(C(C)(C)C#N)cc2)c1=O [Example A41, 2-Methyl-2-(4-{3-methyl-2-oxo-5-[4-(1H-pyrazolo[3,4-b]pyridin-5-yl)pyridin-2-yl]-2,3-dihydroimidazol-1-yl}phenyl)propionitrile]
IC50 (PI3Kalpha): 0.1 to 100 nM
IC50 (PI3Kbeta): 0.1 to 10 µM
Kd [1]: 0.1 to 100 nM
IC50 [2]: 100 to 10000 nM
IC50 (DNA-PK protein complex): 0.1 to 100 nM
IC50 (mTOR): 100 to 10000 nM
melting point: 294 °C

CNc1ccc(-c2ccnc(-c3cn(C)c(=O)n3-c3ccc(C(C)(C)C#N)cc3)c2)cn1 [Example A42, 2-Methyl-2-{4-[3-methyl-5-(6-methylamino-[3,4′]bipyridinyl-2′-yl)-2-oxo-2,3-dihydroimidazol-1-yl]phenyl}propionitrile]
IC50 (PI3Kalpha): 100 to 10000 nM
IC50 (PI3Kbeta): 0.1 to 10 µM
Kd [1]: 0.1 to 100 nM
IC50 [2]: 100 to 10000 nM
IC50 (DNA-PK protein complex): 0.1 to 100 nM
melting point: 191 °C

Cn1cc(-c2cc(-c3cnc4[nH]ccc4c3)ccn2)n(-c2ccccc2)c1=O [Example A47, 1-Methyl-3-phenyl-4-[4-(1H-pyrrolo[2,3-b]pyridin-5-yl)pyridin-2-yl]-1,3-dihydroimidazol-2-one]
IC50 (PI3Kalpha): 100 to 10000 nM
IC50 (PI3Kbeta): 0.1 to 10 µM
IC50 [2]: 100 to 10000 nM
IC50 (DNA-PK protein complex): 0.1 to 100 nM
IC50 (mTOR): 100 to 10000 nM
melting point: 264 °C

Cn1cc(-c2cc(-c3ccc4[nH]ccc4c3)ccn2)n(-c2ccc(C(C)(C)C#N)cc2)c1=O [Example A53, 2-(4-{5-[4-(1H-Indol-5-yl)pyridin-2-yl]-3-methyl-2-oxo-2,3-dihydroimidazol-1-yl}-phenyl)-2-methylpropionitrile]
IC50 (PI3Kalpha): 100 to 10000 nM
IC50 (PI3Kbeta): > 10 µM
Kd [1]: 100 to 10000 nM
IC50 [2]: 100 to 10000 nM
IC50 (DNA-PK protein complex): 0.1 to 100 nM
melting point: 238 °C

COc1cc(-n2c(-c3cc(-c4cnc5[nH]ccc5c4)ccn3)cn(C)c2=O)ccc1Cl [Example A58, 3-(4-Chloro-3-methoxyphenyl)-1-methyl-4-[4-(1H-pyrrolo[2,3-b]pyridin-5-yl)-pyridin-2-yl]-1,3-dihydroimidazol-2-one]
IC50 (PI3Kalpha): 100 to 10000 nM
IC50 (PI3Kbeta): 0.1 to 10 µM
Kd [1]: 100 to 10000 nM
IC50 [2]: 100 to 10000 nM
IC50 (DNA-PK protein complex): 100 to 10000 nM
melting point: 223 °C
